Reference: article PMC11822212, “High-throughput screening identifies Aurora kinase B as a critical therapeutic target for Merkel cell carcinoma” (Nature Communications, 2025)
Counter-ions that a name gives are not always drawn. Like-named read-outs stand apart in the source and are kept apart here.

Experiments:
[1] = system: HACAT cells; assay: qHTS cell viability (CellTiter-Glo, 72 h; primary screen), control cell line; assay type: cell-based, human
[2] = system: VN-MCC cell lines (MCC13, MCC26, UISO); assay: qHTS cell viability, VN-MCC cell lines as a group (mean AUC, VN.MCC.avg); assay type: cell-based, human
[3] = system: MCC cell lines (WAGA, MKL-1, MKL-2, MCC13, MCC26, UISO); assay: qHTS cell viability, all six MCC cell lines as a group (mean AUC, MCC.avg); assay type: cell-based, human
[4] = system: MKL-2 cells (VP-MCC); assay: qHTS cell viability (CellTiter-Glo, 72 h; primary and follow-up small molecule screen); assay type: cell-based, human
[5] = system: WAGA cells (VP-MCC); assay: as above; assay type: cell-based, human
[6] = system: CRL-7250 cells; assay: qHTS cell viability (CellTiter-Glo, 72 h; primary screen), control cell line; assay type: cell-based
[7] = system: MCC13 cells (VN-MCC); assay: qHTS cell viability (CellTiter-Glo, 72 h; primary and follow-up small molecule screen); assay type: cell-based, human
[8] = system: UISO cells (VN-MCC); assay: as above; assay type: cell-based, human
[9] = system: six MCC cell lines and four control cell lines; assay: qHTS cell viability, all 10 cell lines screened; assay type: cell-based
[10] = system: NIH-3T3 cells; assay: qHTS cell viability (CellTiter-Glo, 72 h; primary screen), control cell line; assay type: cell-based, mouse
[11] = system: HEK293T cells; assay: as above; assay type: cell-based, human
[12] = system: MCC26 cells (VN-MCC); assay: qHTS cell viability (CellTiter-Glo, 72 h; primary and follow-up small molecule screen); assay type: cell-based, human
[13] = system: control cell lines (HACAT, HEK293T, CRL-7250, NIH-3T3); assay: qHTS cell viability, control cell lines as a group (mean AUC, Control.avg); assay type: cell-based
[14] = system: VP-MCC cell lines (WAGA, MKL-1, MKL-2); assay: qHTS cell viability, VP-MCC cell lines as a group (mean AUC, VP.MCC.avg); assay type: cell-based, human
[15] = system: MKL-1 cells (VP-MCC); assay: qHTS cell viability (CellTiter-Glo, 72 h; primary and follow-up small molecule screen); assay type: cell-based, human
[16] = NPC library, qHTS dose-response AUC, HACAT control
[17] = NPC library, mean AUC of VN-MCC cell lines
[18] = NPC library, therapeutic window: Control avg AUC minus VN-MCC avg AUC
[19] = NPC library, mean AUC of six MCC cell lines
[20] = NPC library, qHTS dose-response AUC, MKL2
[21] = NPC library, qHTS dose-response AUC, WAGA
[22] = NPC library, qHTS dose-response AUC, CRL7250 control
[23] = NPC library, qHTS dose-response AUC, MCC13
[24] = NPC library, qHTS dose-response AUC, UISO
[25] = NPC library, therapeutic window: Control avg AUC minus MCC avg AUC
[26] = NPC library, qHTS dose-response AUC, NIH3T3 control
[27] = NPC library, qHTS dose-response AUC, HEK293T control
[28] = NPC library, qHTS dose-response AUC, MCC26
[29] = NPC library, mean AUC of control cell lines
[30] = NPC library, mean AUC of VP-MCC cell lines
[31] = NPC library, therapeutic window: Control avg AUC minus VP-MCC avg AUC
[32] = NPC library, qHTS dose-response AUC, MKL1

Molecule `COc1cc(/C=C2\CCC/C(=C\c3ccc(O)c(OC)c3)C2=O)ccc1O` [Cyclovalone] has an HACAT_AUC [1, 16] of 441.291, a VN-MCC_Avg_AUC [2, 17] of 437.803 and a Control-VN-MCC [2, 18] of 3.833. For the same molecule, the MCC_Avg_AUC [3, 19] was 409.645, the MKL2_AUC [4, 20] was 366.589 and the “Area under the dose-response curve (AUC) MKL-2 Replicate 1” value ([4]; follow-up screen, MKL-2, replicate 1) was 366.1. The “Area under the dose-response curve (AUC) MKL-2 Replicate 2” value ([4]; follow-up screen, MKL-2, replicate 2) was 391.5, the “Area under the dose-response curve (AUC) MKL-2 Replicate 3” value ([4]; follow-up screen, MKL-2, replicate 3) was 417.0 and the WAGA_AUC [5, 21] was 394.525. For the same molecule, the “Area under the dose-response curve (AUC) WAGA Replicate 1” value ([5]; follow-up screen, WAGA, replicate 1) was 469.4, the “Area under the dose-response curve (AUC) WAGA Replicate 2” value ([5]; follow-up screen, WAGA, replicate 2) was 402.6 and the “Area under the dose-response curve (AUC) WAGA Replicate 3” value ([5]; follow-up screen, WAGA, replicate 3) was 413.8. For the same molecule, the CRL7250_AUC [6, 22] was 455.387, the MCC13_AUC [7, 23] was 435.637 and the “Area under the dose-response curve (AUC) MCC13 Replicate 1” value ([7]; follow-up screen, MCC13, replicate 1) was 472.8. For the same molecule, the “Area under the dose-response curve (AUC) MCC13 Replicate 2” value ([7]; follow-up screen, MCC13, replicate 2) was 478.9, the “Area under the dose-response curve (AUC) MCC13 Replicate 3” value ([7]; follow-up screen, MCC13, replicate 3) was 414.2 and the UISO_AUC [8, 24] was 420.96. For the same molecule, the “Area under the dose-response curve (AUC) UISO Replicate 1” value ([8]; follow-up screen, UISO, replicate 1) was 445.7, the “Area under the dose-response curve (AUC) UISO Replicate 2” value ([8]; follow-up screen, UISO, replicate 2) was 433.0 and the “Area under the dose-response curve (AUC) UISO Replicate 3” value ([8]; follow-up screen, UISO, replicate 3) was 430.4. For the same molecule, the Control-MCC [9, 25] was 31.9905, the NIH3T3_AUC [10, 26] was 447.034 and the HEK293T_AUC [11, 27] was 422.832. For the same molecule, the MCC26_AUC [12, 28] was 456.812, the “Area under the dose-response curve (AUC) MCC26 Replicate 1” value ([12]; follow-up screen, MCC26, replicate 1) was 446.8 and the “Area under the dose-response curve (AUC) MCC26 Replicate 2” value ([12]; follow-up screen, MCC26, replicate 2) was 450.2. The “Area under the dose-response curve (AUC) MCC26 Replicate 3” value ([12]; follow-up screen, MCC26, replicate 3) was 451.9, the Control_Avg_AUC [13, 29] was 441.636 and the VP-MCC_Avg_AUC [14, 30] was 381.488. The Control-VP-MCC [14, 31] was 60.1479, the MKL1_AUC [15, 32] was 383.35 and the “Area under the dose-response curve (AUC) MKL-1 Replicate 1” value ([15]; follow-up screen, MKL-1, replicate 1) was 414.7. The “Area under the dose-response curve (AUC) MKL-1 Replicate 2” value ([15]; follow-up screen, MKL-1, replicate 2) was 411.0 and the “Area under the dose-response curve (AUC) MKL-1 Replicate 3” value ([15]; follow-up screen, MKL-1, replicate 3) was 407.6.

For `CC[N+](CC)(CC)CCOc1ccc(/C=C/c2ccccc2)cc1` [Stilonium iodide], the HACAT_AUC [1] was 372.384, the Control-VN-MCC [2] was -18.2672 and the VN-MCC_Avg_AUC [2] was 401.249. It also gave an MCC_Avg_AUC [3] of 361.943, an MKL2_AUC [4] of 312.305 and a WAGA_AUC [5] of 348.194. It also gave a CRL7250_AUC [6] of 355.764, an MCC13_AUC [7] of 466.903 and a UISO_AUC [8] of 334.732. The Control-MCC [9] was 21.0388, the NIH3T3_AUC [10] was 427.937 and the HEK293T_AUC [11] was 375.842. The MCC26_AUC [12] was 402.111, the Control_Avg_AUC [13] was 382.981 and the Control-VP-MCC [14] was 60.3449. For the same molecule, the VP-MCC_Avg_AUC [14] was 322.637 and the MKL1_AUC [15] was 307.411.

`CNS(=O)(=O)CCc1ccc2[nH]cc(C3CCN(C)CC3)c2c1` [Naratriptan hydrochloride] was tested, and the HACAT_AUC [1, 16] was 491.601, the VN-MCC_Avg_AUC [2, 17] was 429.254 and the Control-VN-MCC [2, 18] was 33.4153. The MCC_Avg_AUC [3, 19] was 418.966, the MKL2_AUC [4, 20] was 428.785 and the WAGA_AUC [5, 21] was 412.133. It also gave a CRL7250_AUC [6, 22] of 454.782, an MCC13_AUC [7, 23] of 448.681 and a UISO_AUC [8, 24] of 436.144. The Control-MCC [9, 25] was 43.7027, the NIH3T3_AUC [10, 26] was 449.036 and the HEK293T_AUC [11, 27] was 455.258. It also gave an MCC26_AUC [12, 28] of 402.936, a Control_Avg_AUC [13, 29] of 462.669 and a VP-MCC_Avg_AUC [14, 30] of 408.679. The Control-VP-MCC [14, 31] was 53.9902 and the MKL1_AUC [15, 32] was 385.118.

`O=C(CCCCCCCCC#CI)Oc1ccccc1` [Phenyl 11-iodo-10-undecynoate] gave an HACAT_AUC [1, 16] of 489.285, a VN-MCC_Avg_AUC [2, 17] of 450.746 and a Control-VN-MCC [2, 18] of 36.2708. It also gave an MCC_Avg_AUC [3, 19] of 428.115, an MKL2_AUC [4, 20] of 402.29 and a WAGA_AUC [5, 21] of 406.191. It also gave a CRL7250_AUC [6, 22] of 487.776, an MCC13_AUC [7, 23] of 470.776 and a UISO_AUC [8, 24] of 437.546. It also gave a Control-MCC [9, 25] of 58.9016, an NIH3T3_AUC [10, 26] of 495.803 and an HEK293T_AUC [11, 27] of 475.205. The MCC26_AUC [12, 28] was 443.917, the Control_Avg_AUC [13, 29] was 487.017 and the VP-MCC_Avg_AUC [14, 30] was 405.485. It also gave a Control-VP-MCC [14, 31] of 81.5325 and an MKL1_AUC [15, 32] of 407.973.
